Data set [1] concerns Smn protein. As to the kind of experiment: Smn protein assay in cultured cells (SMN HTRF). The note with it: SMA patient fibroblast cells (GM03813), 48 hours; for maximum fold (Fold) increase of Smn protein: 7-point concentration data, relative to vehicle control; for EC1.5x for Smn protein expression: 7-point concentration curve, concentration producing 1.5 times Smn protein vs DMSO vehicle. The data set is classed as cell-based, human. The procedure, abridged:
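SMA patient fibroblasts, 5,000 per well in DMEM-10% FBS, exposed 48 h at 37° C. to a 7-point, 3.16-fold compound series in triplicate. RIPA lysates read by SMN HTRF (665/620 nm, overnight at room temperature); ΔF over blank expressed as fold of vehicle.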

Data set [2] relates to full length SMN2 minigene mRNA containing SMN2 exon 7. As to the kind of experiment: SMN2 minigene mRNA splicing RT-qPCR assay in cultured cells. To be noted: Homo sapiens, HEK293-H; HEK293H cells stably transfected with SMN2-A minigene, 24 hours, 7-point concentration curve; concentration giving 1.5-fold full length SMN2 mRNA vs vehicle; read-out: EC1.5x for production of full length SMN2 mRNA. The data set is classed as cell-based, human. The procedure, abridged: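 HEK293H cells stably carrying SMN2-A minigene treated 24 h (37 °C) with compound, 7-point 3.16-fold dilution, duplicates. Multiplex RT-qPCR on lysate with exon 7/luciferase primers and exon 7–8 junction probe (minigene-specific). Full-length transcript normalised to GAPDH by modified ΔΔCt, expressed relative to vehicle-treated cells.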

The text below walks through data of US9399649B2, “Compounds for treating spinal muscular atrophy” (PTC Therapeutics Inc., priority 2012, dated 2016).

In the case of `Cc1cn2cc(-c3cc4ccc(N5CCN(C(C)C)CC5)cc4c(=O)o3)cc2c(C)n1` [Cpd 78, 3-(1,3-dimethylpyrrolo[1,2-a]pyrazin-7-yl)-7-[4-(propan-2-yl)piperazin-1-yl]-1H-isochromen-1-one], the melting point lay within 213 to 215 °C. In data set [1], the “maximum fold (Fold) increase of Smn protein” value (shortened to “maximum fold (Fold) increase”) is “*** (a fold increase between >1.35 and ≦1.5 is indicated by three stars (***))”. In data set [2], the EC (1.5-fold) was not above 0.1 µM.

Regarding `Cc1cn2cc(-c3cc4ccc(N5CCN6CCC[C@H]6C5)cc4c(=O)o3)cc2c(C)n1` [Cpd 80, 3-(1,3-dimethylpyrrolo[1,2-a]pyrazin-7-yl)-7-[(8aS)-hexahydropyrrolo[1,2-a]pyrazin-2(1H)-yl]-1H-isochromen-1-one], the melting point is 220 to 222 °C. Besides, in data set [1], the “EC1.5x for Smn protein expression” value is given as “**** (an EC1.5×≦0.3 nM is indicated by four stars (****))”; the “maximum fold (Fold) increase” value was “**** (a fold increase between >1.5 and ≦1.65 is indicated by four stars (****))”. Further, the EC (1.5-fold) in data set [2] is not above 0.1 µM.

For the compound `Cc1nc(Cl)cn2cc(-c3cc4ccc(N5CCN(C)CC5)cc4c(=O)o3)nc12` [Cpd 100, 3-(6-chloro-8-methylimidazo[1,2-a]pyrazin-2-yl)-7-(4-methylpiperazin-1-yl)-1H-isochromen-1-one], the melting point was 291 to 296 °C. Besides, in data set [1], the “EC1.5x for Smn protein expression” value was “*** (an EC1.5× between >0.3 nM and ≦1 nM is indicated by three stars (***))”; the “maximum fold (Fold) increase” value is “***** (a fold increase >1.65 is indicated by five stars (*****))”. For the same compound, the EC (1.5-fold) in data set [2] is not above 0.1 µM.

In turn, `Cc1nc(Cl)cn2cc(-c3cc4ccc(N5CCN(C)[C@@H](C)C5)cc4c(=O)o3)nc12` [Cpd 112, 3-(6-chloro-8-methylimidazo[1,2-a]pyrazin-2-yl)-7-[(3S)-3,4-dimethylpiperazin-1-yl]-1H-isochromen-1-one] had a melting point of 270 to 275 °C. In data set [1], the “EC1.5x for Smn protein expression” value is “** (an EC1.5× between >1 μM, and ≦3 nM is indicated by two stars (**))”; the “maximum fold (Fold) increase” value is “***** (a fold increase >1.65 is indicated by five stars (*****))”. Also, the EC (1.5-fold) in data set [2] fell in the range of 1 to 3 µM.

Take `COc1ccc(-c2cc3ccc(N4CCN[C@@H](C)C4)cc3c(=O)o2)c(OC)c1` [Cpd 50, 3-(2,4-dimethoxyphenyl)-7-[(3S)-3-methylpiperazin-1-yl]-1H-isochromen-1-one]: the melting point was 231 °C (dec.). For the same compound, in data set [1], the “EC1.5x for Smn protein expression” value is “** (an EC1.5× between >1 μM, and ≦3 nM is indicated by two stars (**))”; the “maximum fold (Fold) increase” value was “*** (a fold increase between >1.35 and ≦1.5 is indicated by three stars (***))”. In addition, in data set [2], the EC (1.5-fold) is not above 0.1 µM.

In the case of `COc1ccc(-c2cc3ccc(N4CCN[C@@H](C)C4)cc3c(=O)o2)cc1F` [Cpd 43, 3-(3-fluoro-4-methoxyphenyl)-7-[(3S)-3-methylpiperazin-1-yl]-1H-isochromen-1-one], the melting point lay within 209 to 211 °C. In data set [1], the “EC1.5x for Smn protein expression” value is reported as “**** (an EC1.5×≦0.3 nM is indicated by four stars (****))”; the “maximum fold (Fold) increase” value was “*** (a fold increase between >1.35 and ≦1.5 is indicated by three stars (***))”. Also, the EC (1.5-fold) in data set [2] is not above 0.1 µM.

Consider `Cc1cn2cc(-c3cc4ccc(N5CCN(C6CC6)CC5)cc4c(=O)o3)nc2c(C)n1` [Cpd 84, 7-(4-cyclopropylpiperazin-1-yl)-3-(6,8-dimethylimidazo[1,2-a]pyrazin-2-yl)-1H-isochromen-1-one], for which the melting point was 260 °C (dec.). Further, in data set [1], the “EC1.5x for Smn protein expression” value is “*** (an EC1.5× between >0.3 nM and ≦1 nM is indicated by three stars (***))”; the “maximum fold (Fold) increase” value is given as “***** (a fold increase >1.65 is indicated by five stars (*****))”. Further, the EC (1.5-fold) in data set [2] lay in the range of 0.1 to 0.3 µM.
